Test results taken from PMC2682676 (Diabetes, 2009).

Legend:
[1] = tested on: αTC1 cells; assay: Glucagon secretion from αTC1 cells; type: cell-based; conditions: αTC1 cells stimulated with GIP; secretion into the medium
[2] = tested on: subjects with type 2 diabetes; type: in vivo, human
[3] = tested on: subjects with type 2 diabetes; assay: Gastric emptying by appearance of acetaminophen in plasma during GIP infusion; type: in vivo, human; conditions: 1 g acetaminophen with first bite; last 10 subjects

`CC[C@H](C)[C@H](NC(=O)[C@H](CO)NC(=O)[C@H](Cc1ccc(O)cc1)NC(=O)[C@H](CC(=O)O)NC(=O)[C@H](CO)NC(=O)[C@@H](NC(=O)[C@H](Cc1ccccc1)NC(=O)[C@@H](NC(=O)CNC(=O)[C@H](CCC(=O)O)NC(=O)[C@H](C)NC(=O)[C@@H](N)Cc1ccc(O)cc1)[C@@H](C)O)[C@@H](C)CC)C(=O)N[C@@H](C)C(=O)N[C@@H](CCSC)C(=O)N[C@@H](CC(=O)O)C(=O)N[C@@H](CCCCN)C(=O)N[C@H](C(=O)N[C@@H](Cc1c[nH]cn1)C(=O)N[C@@H](CCC(N)=O)C(=O)N[C@@H](CCC(N)=O)C(=O)N[C@@H](CC(=O)O)C(=O)N[C@@H](Cc1ccccc1)C(=O)N[C@H](C(=O)N[C@@H](CC(N)=O)C(=O)N[C@@H](Cc1c[nH]c2ccccc12)C(=O)N[C@@H](CC(C)C)C(=O)N[C@@H](CC(C)C)C(=O)N[C@@H](C)C(=O)N[C@@H](CCC(N)=O)C(=O)N[C@@H](CCCCN)C(=O)NCC(=O)N[C@@H](CCCCN)C(=O)N[C@@H](CCCCN)C(=O)N[C@@H](CC(N)=O)C(=O)N[C@@H](CC(=O)O)C(=O)N[C@@H](Cc1c[nH]c2ccccc12)C(=O)N[C@@H](CCCCN)C(=O)N[C@@H](Cc1c[nH]cn1)C(=O)N[C@@H](CC(N)=O)C(=O)N[C@H](C(=O)N[C@H](C(=O)N[C@@H](CCC(N)=O)C(=O)O)[C@@H](C)O)[C@@H](C)CC)C(C)C)[C@@H](C)CC` [GIP, Glucose-dependent insulinotropic polypeptide] was tested, and the glucagon secretion [1] was “glucagon secretion in a concentration-dependent manner”, the “plasma glucagon, early postprandial period vs placebo” value ([2]; 20 ng/kg/min i.v., 0-60 min, positive AUC0-60 P < 0.01, n = 22) was “statistically significant augmentation in glucagon secretion” and the “plasma glucose, early postprandial period vs placebo” value ([2]; 20 ng/kg/min i.v., t = 0-60 min, negative AUC0-60 P < 0.05, n = 22) was “early transient decrease in plasma glucose”. The “plasma insulin, early postprandial period vs placebo” value ([2]; 20 ng/kg/min i.v., t = 0-60 min, positive AUC0-60 P < 0.01, n = 22) was “statistically significant increase in plasma insulin”, the “resistin levels vs placebo” value ([2]; during 3 h of infusion, data not shown) was “no effect on resistin levels” and the “gastric emptying (plasma acetaminophen levels, AUCALL t = 0-180 min) vs placebo” value [3] was “did not affect gastric emptying”.
